This passage reports IC50 results from ChEMBL document CHEMBL1129234, “Synthesis of phosphorus-containing amino acid analogs as inhibitors of nitric oxide synthase” (Bioorg Med Chem Lett, 1996).

The target of experiment [1] is T1, Nitric oxide synthase, inducible (Mus musculus, UniProt P29477).
T1 sequence (P29477 whole entry): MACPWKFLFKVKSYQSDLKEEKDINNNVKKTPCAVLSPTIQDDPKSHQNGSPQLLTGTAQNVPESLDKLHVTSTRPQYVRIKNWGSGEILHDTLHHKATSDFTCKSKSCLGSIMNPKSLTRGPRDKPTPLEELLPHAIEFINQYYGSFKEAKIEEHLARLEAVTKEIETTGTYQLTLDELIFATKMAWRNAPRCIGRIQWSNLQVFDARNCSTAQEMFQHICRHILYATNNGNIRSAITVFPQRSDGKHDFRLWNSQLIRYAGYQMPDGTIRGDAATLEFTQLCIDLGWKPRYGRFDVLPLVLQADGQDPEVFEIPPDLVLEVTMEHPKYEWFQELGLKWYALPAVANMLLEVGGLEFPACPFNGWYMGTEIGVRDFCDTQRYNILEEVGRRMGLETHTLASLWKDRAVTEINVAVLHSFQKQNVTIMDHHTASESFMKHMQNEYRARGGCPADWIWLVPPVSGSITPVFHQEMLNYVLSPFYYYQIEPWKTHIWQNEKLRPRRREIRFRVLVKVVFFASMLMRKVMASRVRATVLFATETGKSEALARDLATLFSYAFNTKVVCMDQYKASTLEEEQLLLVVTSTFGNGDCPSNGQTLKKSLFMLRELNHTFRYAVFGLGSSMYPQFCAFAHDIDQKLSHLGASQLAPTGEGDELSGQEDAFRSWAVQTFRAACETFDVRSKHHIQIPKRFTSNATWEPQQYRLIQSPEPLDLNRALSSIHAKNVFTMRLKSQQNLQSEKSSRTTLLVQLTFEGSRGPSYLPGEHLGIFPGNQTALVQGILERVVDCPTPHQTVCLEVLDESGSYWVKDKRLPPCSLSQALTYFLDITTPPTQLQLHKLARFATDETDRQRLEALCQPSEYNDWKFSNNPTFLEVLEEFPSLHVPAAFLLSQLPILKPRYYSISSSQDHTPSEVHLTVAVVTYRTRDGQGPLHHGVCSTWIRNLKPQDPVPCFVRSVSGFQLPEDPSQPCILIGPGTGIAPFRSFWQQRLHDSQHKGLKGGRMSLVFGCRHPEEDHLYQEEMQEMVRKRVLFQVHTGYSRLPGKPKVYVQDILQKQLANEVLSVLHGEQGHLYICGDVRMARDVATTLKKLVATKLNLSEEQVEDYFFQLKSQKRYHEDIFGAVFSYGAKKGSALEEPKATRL
Nature of the experiment: Compound was tested in vitro for inhibitory activity against inducible nitric oxide synthase.

In another experiment the target is Nitric oxide synthase 1 (Rattus norvegicus, UniProt P29476). Nature of the experiment: Compound was tested in vitro for inhibitory activity against nNOS (constitutive isoform found in neurons).

Each structure is given as a SMILES string.

Nitric oxide synthase 1, sequence (P29476 whole entry, canonical isoform): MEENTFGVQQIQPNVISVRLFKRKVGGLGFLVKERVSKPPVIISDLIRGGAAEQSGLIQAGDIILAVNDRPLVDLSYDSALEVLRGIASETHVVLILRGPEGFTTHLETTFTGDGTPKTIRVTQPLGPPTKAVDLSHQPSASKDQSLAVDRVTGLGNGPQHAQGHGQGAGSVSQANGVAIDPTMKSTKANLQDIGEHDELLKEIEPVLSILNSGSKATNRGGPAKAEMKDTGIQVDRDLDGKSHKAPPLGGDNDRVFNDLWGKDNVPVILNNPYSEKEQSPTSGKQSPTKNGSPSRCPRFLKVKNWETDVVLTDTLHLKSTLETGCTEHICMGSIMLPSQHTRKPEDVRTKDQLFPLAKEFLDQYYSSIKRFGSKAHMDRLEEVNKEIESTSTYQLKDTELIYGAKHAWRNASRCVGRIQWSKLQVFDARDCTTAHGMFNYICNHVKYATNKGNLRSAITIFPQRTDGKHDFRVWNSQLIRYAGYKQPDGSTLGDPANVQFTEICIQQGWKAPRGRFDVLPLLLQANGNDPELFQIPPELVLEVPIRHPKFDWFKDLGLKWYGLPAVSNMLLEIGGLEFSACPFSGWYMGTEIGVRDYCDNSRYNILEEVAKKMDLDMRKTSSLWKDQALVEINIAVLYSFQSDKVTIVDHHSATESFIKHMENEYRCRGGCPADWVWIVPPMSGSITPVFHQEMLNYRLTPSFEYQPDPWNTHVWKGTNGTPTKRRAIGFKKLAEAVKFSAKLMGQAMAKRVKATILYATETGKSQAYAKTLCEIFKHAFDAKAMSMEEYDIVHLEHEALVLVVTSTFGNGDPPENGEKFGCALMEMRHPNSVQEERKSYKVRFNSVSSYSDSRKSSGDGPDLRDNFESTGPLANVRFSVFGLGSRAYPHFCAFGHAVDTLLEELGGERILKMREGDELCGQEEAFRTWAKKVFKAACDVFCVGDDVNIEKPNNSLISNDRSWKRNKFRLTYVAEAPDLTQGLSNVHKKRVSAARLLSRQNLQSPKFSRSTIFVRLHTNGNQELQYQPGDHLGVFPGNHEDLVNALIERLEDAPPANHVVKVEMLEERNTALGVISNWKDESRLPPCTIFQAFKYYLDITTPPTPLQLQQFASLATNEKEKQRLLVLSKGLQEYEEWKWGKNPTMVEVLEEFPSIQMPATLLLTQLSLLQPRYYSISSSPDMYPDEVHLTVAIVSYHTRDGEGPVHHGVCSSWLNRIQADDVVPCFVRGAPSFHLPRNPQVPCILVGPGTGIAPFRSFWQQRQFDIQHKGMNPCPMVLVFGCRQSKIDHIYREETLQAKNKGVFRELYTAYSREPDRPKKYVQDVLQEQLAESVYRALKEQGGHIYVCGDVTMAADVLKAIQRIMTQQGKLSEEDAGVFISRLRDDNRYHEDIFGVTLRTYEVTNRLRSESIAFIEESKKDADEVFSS

A word on the IC50: it is the concentration needed to halve the response being measured. Read a high IC50 as lower potency. As to `N/C(=N/CCCC(N)P(=O)(O)O)N[N+](=O)[O-]` (stereo not drawn), the half-maximal inhibitory concentration (IC50) (in experiment [1]; at Nitric oxide synthase 1) was over 100 µM each time.

In the case of `CNC(=N)NCCCC(N)[PH](=O)O` (stereo not drawn), the figures for the half-inhibitory concentration (IC50) (in experiment [1]; on Nitric oxide synthase 1) were over 100 µM and 100 µM, respectively.

For `N=C(N)NCCCC(N)P(=O)(O)O` (stereo not drawn), the half-maximal inhibitory concentration (IC50) (in experiment [1]; against Nitric oxide synthase 1) was over 100 µM each time.

Regarding `CNC(=N)NCCCC(N)P(=O)(O)O` (stereo not drawn), the half-maximal inhibitory concentration (IC50) (in experiment [1]; on Nitric oxide synthase 1) was over 100 µM each time.

`NC(N)=NCCCC(N)[PH](=O)O` (stereo not drawn): the IC50 (in experiment [1]; against Nitric oxide synthase 1) was over 100 µM each time.

In the case of `N/C(=N/CCCC(N)[PH](=O)O)N[N+](=O)[O-]` (stereo not drawn), the half-inhibitory concentration (IC50) in experiment [1] is over 100 µM; against Nitric oxide synthase 1 it was 45 µM.

As for `N=C(NCCC[C@H](N)C(=O)O)N[N+](=O)[O-]` [NITROARGININE], the concentration for half-maximal inhibition (IC50) in experiment [1] amounted to 10 µM.
